These are literature values, as cited in patent US20070148194A1, “Novel nanoemulsion formulations” (priority 2005, published 2007).

The subject of the data set is HIV. The settings on record: in vitro; read-out: anti-HIV activity in vitro, IC50.

The structures appear in SMILES notation.

In the case of `CC(C)(C)NC(=O)[C@@H]1C[C@@H]2CCCC[C@@H]2CN1C[C@@H](O)[C@H](Cc1ccccc1)NC(=O)[C@H](CC(N)=O)NC(=O)c1ccc2ccccc2n1` [SQV, Saquinavir], the IC50 is 0.02 µM.
